# Key:
# S. aureus MRSA COL = assay: MIC, microdilution in CAMHB 24 h; assay type: cell-based, Staphylococcus aureus; conditions: MRSA COL
# S. aureus CF07-L = assay: MIC, microdilution in CAMHB 24 h; assay type: cell-based, Staphylococcus aureus; conditions: CF07-L
# S. aureus ATCC 29213 [1] = assay: Checkerboard assay, aminoglycoside and tomatidine; assay type: cell-based, Staphylococcus aureus; conditions: for Aminoglycoside MIC: checkerboard
# S. aureus CF35A-L = assay: MIC, microdilution in CAMHB 24 h; assay type: cell-based, Staphylococcus aureus; conditions: CF35A-L
# S. aureus N315 = assay: microbe, parasite or virus in culture; assay type: cell-based, Staphylococcus aureus
# S. aureus MA078038 = assay: MIC, microdilution in CAMHB 24 h; assay type: cell-based, Staphylococcus aureus
# S. aureus Sa228c = assay: MIC, microdilution in CAMHB 24 h; assay type: cell-based, Staphylococcus aureus; conditions: Sa228c, 8 μg/ml of tomatidine
# S. aureus CF8E-L = assay: MIC, microdilution in CAMHB 24 h; assay type: cell-based, Staphylococcus aureus; conditions: CF8E-L
# S. aureus CF9A-L = assay: MIC, microdilution in CAMHB 24 h; assay type: cell-based, Staphylococcus aureus; conditions: CF9A-L
# S. aureus CF2A-L = assay: MIC, microdilution in CAMHB 24 h; assay type: cell-based; conditions: CF2A-L
# S. aureus CF6B-L = assay: MIC, microdilution in CAMHB 24 h; assay type: cell-based, Staphylococcus aureus; conditions: CF6B-L
# S. aureus ATCC 29213 [2] = assay: MIC, microdilution in CAMHB 24 h, with or without tomatidine/compound; assay type: cell-based, Staphylococcus aureus; conditions: for MIC −TO: absence of tomatidine
# S. aureus SHY97-3906 = assay: MIC, microdilution in CAMHB 24 h; assay type: cell-based, Staphylococcus aureus
# S. aureus ATCC 43300 = assay: MIC, microdilution in CAMHB 24 h; assay type: cell-based, Staphylococcus aureus; conditions: ATCC 43300
# S. aureus Newbould = assay: MIC, microdilution in CAMHB 24 h; assay type: cell-based, Staphylococcus aureus; conditions: Newbould
# S. aureus ATCC 29213 [3] = assay: Time-kill experiments, aminoglycoside alone or with tomatidine (FIGS. 8-10)
# S. aureus Mu50 = assay: MIC, microdilution in CAMHB 24 h; assay type: cell-based, Staphylococcus aureus
# S. aureus 8325-4 = assay: MIC, microdilution in CAMHB 24 h; assay type: cell-based, Staphylococcus aureus; conditions: 8325-4
# S. aureus CF1A-L = assay: MIC, microdilution in CAMHB 24 h; assay type: cell-based, Staphylococcus aureus; conditions: CF1A-L
# [4] = ATCC 29123, 8 μg/ml of tomatidine
# [5] = SHY-3906, 8 μg/ml of tomatidine
substance,measurement,setting,value
gentamicin,Fold (−TO/+TO),S. aureus MRSA COL; 8 μg/ml of tomatidine,8-16 fold
same,MIC +TO,S. aureus MRSA COL; 8 μg/ml of tomatidine,0.06 µg/mL
same,MIC,S. aureus MRSA COL; Human (SSTI),0.5 to 1 µg/mL
same,MIC −TO,S. aureus MRSA COL; absence of tomatidine,0.5 to 1 µg/mL
same,Fold (−TO/+TO),S. aureus CF07-L; 8 μg/ml of tomatidine,4-8 fold
same,MIC +TO,S. aureus CF07-L; 8 μg/ml of tomatidine,0.06 to 0.25 µg/mL
same,MIC,S. aureus CF07-L; Human (CF lungs),0.5 to 1 µg/mL
same,MIC −TO,S. aureus CF07-L; absence of tomatidine,0.5 to 1 µg/mL
same,FIC index,"S. aureus ATCC 29213 [1]; aminoglycoside with tomatidine, tomatidine MIC considered 32 μg/ml, values overestimated",≦0.116
same,Aminoglycoside MIC,S. aureus ATCC 29213 [1]; tomatidine 0 μg/ml,0.5 to 1 µg/mL
same,Aminoglycoside MIC,S. aureus ATCC 29213 [1]; tomatidine 0.06 μg/ml,0.25 µg/mL
same,Aminoglycoside MIC,S. aureus ATCC 29213 [1]; tomatidine 0.12 μg/ml,0.06 to 0.25 µg/mL
same,Aminoglycoside MIC,S. aureus ATCC 29213 [1]; tomatidine 0.25 μg/ml,0.06 µg/mL
same,Aminoglycoside MIC,S. aureus ATCC 29213 [1]; tomatidine 0.5 μg/ml,0.06 µg/mL
same,Aminoglycoside MIC,S. aureus ATCC 29213 [1]; tomatidine 1 μg/ml,0.03 to 0.06 µg/mL
same,Aminoglycoside MIC,S. aureus ATCC 29213 [1]; tomatidine 2 μg/ml,0.06 to 0.12 µg/mL
same,Aminoglycoside MIC,S. aureus ATCC 29213 [1]; tomatidine 4 μg/ml,0.03 to 0.12 µg/mL
same,Aminoglycoside MIC,S. aureus ATCC 29213 [1]; tomatidine 8 μg/ml,0.03 to 0.06 µg/mL
same,Fold (−TO/+TO),S. aureus CF35A-L; 8 μg/ml of tomatidine,8 fold
same,MIC +TO,S. aureus CF35A-L; 8 μg/ml of tomatidine,0.06 to 0.12 µg/mL
same,MIC,"S. aureus CF35A-L; Human (CF lungs), MRSA",0.5 to 1 µg/mL
same,MIC −TO,S. aureus CF35A-L; absence of tomatidine,0.5 to 1 µg/mL
same,MIC +TO,"S. aureus N315; N315, ant(4′)-Ia, 8 μg/ml of tomatidine",0.12 µg/mL
same,MIC −TO,"S. aureus N315; N315, ant(4′)-Ia, absence of tomatidine",1 µg/mL
same,Fold (−TO/+TO),"S. aureus N315; N315, 8 μg/ml of tomatidine",8 fold
same,MIC,"S. aureus N315; N315, Human (HA), MRSA",1 µg/mL
same,MIC +TO,"S. aureus MA078038; MA078038, aph(3′)-IIIa, 8 μg/ml of tomatidine",0.06 µg/mL
same,MIC −TO,"S. aureus MA078038; MA078038, aph(3′)-IIIa, absence of tomatidine",0.25 to 0.5 µg/mL
same,Fold (−TO/+TO),"S. aureus MA078038; MA078038, 8 μg/ml of tomatidine",4-8 fold
same,MIC,"S. aureus MA078038; MA078038, Human (CA), MRSA",0.25 to 0.5 µg/mL
same,MIC +TO,"S. aureus Sa228c; aac(6′)-aph(2″), ant(4′)-Ia",8 to 16 µg/mL
same,Fold (−TO/+TO),S. aureus Sa228c,8 fold
same,Fold (−TO/+TO),S. aureus CF8E-L; 8 μg/ml of tomatidine,2-4 fold
same,MIC +TO,S. aureus CF8E-L; 8 μg/ml of tomatidine,0.25 to 0.5 µg/mL
same,MIC,S. aureus CF8E-L; Human (CF lungs),1 µg/mL
same,MIC −TO,S. aureus CF8E-L; absence of tomatidine,1 µg/mL
same,MIC +TO,"S. aureus CF9A-L; ant(4′)-Ia, 8 μg/ml of tomatidine",0.06 to 0.12 µg/mL
same,MIC −TO,"S. aureus CF9A-L; ant(4′)-Ia, absence of tomatidine",0.5 to 1 µg/mL
same,Fold (−TO/+TO),S. aureus CF9A-L; 8 μg/ml of tomatidine,4-8 fold
same,MIC,"S. aureus CF9A-L; Human (CF lungs), MRSA",0.5 to 1 µg/mL
same,Fold (−TO/+TO),S. aureus CF2A-L; 8 μg/ml of tomatidine,4-8 fold
same,MIC +TO,S. aureus CF2A-L; 8 μg/ml of tomatidine,0.12 to 0.25 µg/mL
same,MIC,S. aureus CF2A-L; Human (CF lungs),1 µg/mL
same,MIC −TO,S. aureus CF2A-L; absence of tomatidine,1 µg/mL
same,MIC +TO,"S. aureus CF6B-L; aac(6′)-aph(2″), 8 μg/ml of tomatidine",16 to 32 µg/mL
same,MIC −TO,"S. aureus CF6B-L; aac(6′)-aph(2″), absence of tomatidine",128 to 256 µg/mL
same,Fold (−TO/+TO),S. aureus CF6B-L; 8 μg/ml of tomatidine,4-8 fold
same,MIC,S. aureus CF6B-L; Human (CF lungs),128-256 (R) μg/ml
same,Fold (−TO/+TO),S. aureus ATCC 29213 [2]; [4],8-32 fold
same,MIC +TO,S. aureus ATCC 29213 [2]; [4],0.03 to 0.06 µg/mL
same,MIC −TO,S. aureus ATCC 29213 [2]; ATCC 29123,0.5 to 1 µg/mL
same,MIC,"S. aureus ATCC 29213 [2]; ATCC 29213, Human (SSTI)",0.5 to 1 µg/mL
same,MIC −TO,S. aureus ATCC 29213 [2]; ATCC 29213,0.5-1^ μg/ml
same,MIC +TO,"S. aureus ATCC 29213 [2]; ATCC 29213, presence of tomatidine at 8 μg/ml",0.03 to 0.06 µg/mL
same,Fold (−TO/+TO),"S. aureus ATCC 29213 [2]; ATCC 29213, tomatidine at 8 μg/ml",8-32 fold
same,MIC,"S. aureus SHY97-3906; SHY97-3906, Cow (mastitis)",0.25 µg/mL
same,Fold (−TO/+TO),S. aureus SHY97-3906; [5],4-8 fold
same,MIC +TO,S. aureus SHY97-3906; [5],0.03 to 0.06 µg/mL
same,MIC −TO,"S. aureus SHY97-3906; SHY-3906, absence of tomatidine",0.25 µg/mL
same,Fold (−TO/+TO),S. aureus ATCC 43300; 8 μg/ml of tomatidine,4 fold
same,MIC +TO,S. aureus ATCC 43300; 8 μg/ml of tomatidine,16 to 32 µg/mL
same,MIC,"S. aureus ATCC 43300; Human (HA), MRSA",64-128 (R) μg/ml
same,MIC −TO,S. aureus ATCC 43300; absence of tomatidine,64 to 128 µg/mL
same,MIC +TO,S. aureus Newbould; 8 μg/ml of tomatidine,0.06 µg/mL
same,MIC,S. aureus Newbould; Cow (mastitis),0.5 to 1 µg/mL
same,MIC −TO,S. aureus Newbould; absence of tomatidine,0.5 to 1 µg/mL
same,time-kill activity alone,"S. aureus ATCC 29213 [3]; alone at ≧1×MIC (1 μg/ml), regrowth observed within 24 h, FIG. 9",bactericidal
same,time-kill activity of combination,"S. aureus ATCC 29213 [3]; gentamicin 0.06 μg/ml combined with tomatidine 8, FIG. 8",strong bactericidal activity
same,MIC +TO,"S. aureus Mu50; Mu50, aac(6′)-aph(2″), ant(4′)-Ia, 8 μg/ml of tomatidine",16 µg/mL
same,MIC −TO,"S. aureus Mu50; Mu50, aac(6′)-aph(2″), ant(4′)-Ia, absence of tomatidine",128 µg/mL
same,Fold (−TO/+TO),"S. aureus Mu50; Mu50, 8 μg/ml of tomatidine",8 fold
same,MIC,"S. aureus Mu50; Mu50, Human (SSTI), MRSA, VISA",128 (R) μg/ml
same,Fold (−TO/+TO),S. aureus 8325-4; 8 μg/ml of tomatidine,4 fold
same,MIC +TO,S. aureus 8325-4; 8 μg/ml of tomatidine,0.03 to 0.06 µg/mL
same,MIC,S. aureus 8325-4; Laboratory strain,0.12 to 0.25 µg/mL
same,MIC −TO,S. aureus 8325-4; absence of tomatidine,0.12 to 0.25 µg/mL
same,Fold (−TO/+TO),S. aureus CF1A-L; 8 μg/ml of tomatidine,4-8 fold
same,MIC +TO,S. aureus CF1A-L; 8 μg/ml of tomatidine,0.12 µg/mL
same,MIC,S. aureus CF1A-L; Human (CF lungs),0.5 to 1 µg/mL
same,MIC −TO,S. aureus CF1A-L; absence of tomatidine,0.5 to 1 µg/mL

# Reference: patent US9457033B2, “Steroid alkaloids and uses thereof as antimicrobial agents against electron transport-deficient microbes and as potentiators for antimicrobial agents against pathogenic bacteria” (priority 2011, dated 2016)
